Assays:
Assay in all cases: relative viability (nuclei count vs DMSO), 5 days (fraction); higher = more cells survive
Trametinib + Alpelisib = compound: CC(=O)Nc1cccc(-n2c(=O)n(C3CC3)c(=O)c3c(Nc4ccc(I)cc4F)n(C)c(=O)c(C)c32)c1 [Trametinib] + Cc1nc(NC(=O)N2CCC[C@H]2C(N)=O)sc1-c1ccnc(C(C)(C)C(F)(F)F)c1 [Alpelisib] (partner 2 µM)
Summary of the method: (§1)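 Lung cancer cell lines, seeded in 1536-well plates, were treated the following day by pin tool with a single drug or with five library-drug doses (not always all listed) in √10 steps on top of a fixed anchor-drug dose. Cells were fixed and nuclei stained in one step after 5 days, and nuclei were counted. Relative viability is the nuclei count for treated wells divided by that for vehicle wells, reported as medians of duplicate plates.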

Trametinib + Palbociclib = compound: CC(=O)Nc1cccc(-n2c(=O)n(C3CC3)c(=O)c3c(Nc4ccc(I)cc4F)n(C)c(=O)c(C)c32)c1 [Trametinib] + CC(=O)c1c(C)c2cnc(Nc3ccc(N4CCNCC4)cn3)nc2n(C2CCCC2)c1=O [Palbociclib] (partner 0.5 µM)
Summary of the method: as §1

Trametinib + Dasatinib = compound: CC(=O)Nc1cccc(-n2c(=O)n(C3CC3)c(=O)c3c(Nc4ccc(I)cc4F)n(C)c(=O)c(C)c32)c1 [Trametinib] + Cc1nc(Nc2ncc(C(=O)Nc3c(C)cccc3Cl)s2)cc(N2CCN(CCO)CC2)n1 [Dasatinib] (partner 0.075 µM)
Summary of the method: as §1

[1] = compound: CN1C=C(C2=CC=CC=C21)/C=C\3/C4=C(C=CC=N4)NC3=O + O=C(CCCCCCC(=O)Nc1ccccc1)NO [Vorinostat] (partner 1 µM)
Summary of the method: as §1

Cell Line | relative viability (Trametinib + Alpelisib; first compound 0.0025 µM) | relative viability (Trametinib + Alpelisib; first compound 0.007906 µM) | relative viability (Trametinib + Alpelisib; first compound 0.025 µM) | relative viability (Trametinib + Alpelisib; first compound 0.07906 µM) | relative viability (Trametinib + Alpelisib; first compound 0.25 µM) | relative viability (Trametinib + Palbociclib; first compound 0.0025 µM) | relative viability (Trametinib + Palbociclib; first compound 0.007906 µM) | relative viability (Trametinib + Palbociclib; first compound 0.025 µM) | relative viability (Trametinib + Palbociclib; first compound 0.07906 µM) | relative viability (Trametinib + Palbociclib; first compound 0.25 µM) | relative viability (Trametinib + Dasatinib; first compound 0.0025 µM) | relative viability (Trametinib + Dasatinib; first compound 0.007906 µM) | relative viability (Trametinib + Dasatinib; first compound 0.025 µM) | relative viability (Trametinib + Dasatinib; first compound 0.07906 µM) | relative viability (Trametinib + Dasatinib; first compound 0.25 µM) | relative viability ([1]; first compound 0.02 µM) | relative viability ([1]; first compound 0.06325 µM) | relative viability ([1]; first compound 0.2 µM) | relative viability ([1]; first compound 0.6325 µM) | relative viability ([1]; first compound 2 µM)
NCI-H661 | 0.607 | 0.654 | 0.411 | 0.257 | 0.264 | 0.429 | 0.404 | 0.377 | 0.311 | 0.348 | 0.816 | 0.796 | 0.565 | 0.481 | 0.513 | 0.853 | 0.763 | 0.835 | 0.927 | 0.775
NCI-H520 | 0.768 | 0.887 | 0.81 | 0.818 | 0.693 | 0.217 | 0.238 | 0.199 | 0.158 | 0.232 | 0.281 | 0.225 | 0.288 | 0.282 | 0.176 | 0.797 | 0.482 | 0.661 | 0.718 | 0.722
NCI-H2405 | 0.599 | 0.42 | 0.339 | 0.379 | 0.315 | 0.527 | 0.58 | 0.419 | – | 0.281 | 0.209 | 0.187 | 0.19 | 0.173 | 0.183 | 1.16 | 0.913 | 0.754 | 0.98 | 0.73
LCLC-97TM1 | 0.216 | 0.199 | 0.146 | 0.183 | 0.11 | 0.166 | 0.141 | 0.15 | 0.13 | 0.115 | 0.816 | 0.44 | 0.381 | 0.125 | 0.171 | – | 0.621 | 0.467 | 0.766 | 0.77
NCI-H727 | 0.312 | 0.211 | 0.227 | 0.172 | 0.183 | 0.577 | 0.513 | 0.41 | 0.382 | 0.384 | 0.31 | 0.212 | 0.347 | 0.196 | 0.244 | 1.02 | 1.21 | 0.903 | 1.23 | 1.35
NCI-H2228 | 0.749 | 0.527 | 0.488 | 0.331 | 0.194 | 0.649 | 0.595 | 0.57 | 0.369 | 0.235 | 0.44 | 0.36 | 0.348 | 0.237 | 0.143 | 0.85 | 0.646 | 0.503 | 0.704 | 0.508
LK-2 | 1 | 0.862 | 0.958 | 1.28 | 0.303 | 0.551 | 0.603 | 0.704 | 0.738 | 0.223 | 0.251 | 0.272 | 0.239 | 0.212 | 0.156 | – | 0.263 | 0.199 | 0.231 | 0.315
PC-3 [JPC-3] | 0.998 | 0.968 | 0.864 | 0.806 | 0.511 | 0.556 | 0.581 | 0.483 | – | 0.575 | 1.06 | 0.927 | 0.848 | 0.823 | 0.743 | 0.831 | 0.798 | 0.75 | 0.612 | 0.589
NCI-H460 | 0.417 | 0.146 | 0.115 | 0.0733 | 0.0121 | 0.152 | 0.0859 | 0.0921 | 0.018 | 0.0172 | 0.369 | 0.176 | 0.138 | 0.085 | 0.0431 | 0.958 | 0.655 | 0.685 | 0.37 | 0.545
NCI-H647 | 1.14 | 0.956 | 0.768 | 0.638 | 0.199 | 0.374 | 0.344 | 0.334 | 0.16 | 0.108 | 0.169 | 0.22 | 0.184 | 0.107 | 0.0699 | 0.498 | 0.529 | 0.676 | 0.524 | 0.531
NCI-H838 | 0.97 | 0.877 | – | 0.709 | 0.551 | 0.207 | 0.183 | 0.162 | 0.159 | 0.202 | 0.251 | 0.322 | 0.214 | 0.27 | 0.249 | 0.679 | 0.653 | 0.591 | 0.601 | 0.55
PC-14 | 0.994 | 0.892 | 0.949 | 0.654 | 0.46 | 0.46 | 0.306 | 0.295 | 0.214 | 0.102 | 0.265 | 0.234 | 0.266 | 0.13 | 0.0632 | 0.759 | 0.583 | 0.728 | 0.674 | 0.744
NCI-H358 | 0.563 | 0.373 | 0.277 | 0.269 | 0.248 | 0.133 | 0.122 | 0.147 | 0.129 | 0.117 | 0.137 | 0.117 | 0.103 | 0.11 | 0.143 | 0.764 | 0.535 | 0.672 | 1.21 | 0.51
NCI-H1915 | 1.06 | 0.906 | 0.6 | 0.528 | 0.254 | 0.477 | 0.382 | 0.196 | 0.19 | 0.143 | 0.273 | 0.203 | 0.196 | 0.109 | 0.0747 | 0.502 | 0.501 | 0.513 | 0.442 | 0.493
201T | 1.02 | 0.914 | 0.866 | 0.893 | 0.765 | 0.344 | 0.321 | 0.284 | 0.322 | 0.272 | 0.555 | 0.59 | 0.579 | 0.521 | 0.484 | 1.04 | 0.879 | 1.03 | 1.04 | 1.05
NCI-H1437 | 0.908 | 0.342 | 0.22 | 0.219 | 0.208 | 0.319 | 0.226 | 0.204 | 0.196 | 0.211 | 0.374 | 0.207 | 0.162 | 0.118 | 0.217 | 0.955 | 0.823 | 0.857 | 0.804 | 0.71
A-427 | 0.91 | 1.02 | 0.437 | 0.607 | 0.269 | 0.534 | 0.511 | 0.45 | 0.45 | 0.372 | 0.75 | 0.397 | 0.178 | 0.262 | 0.171 | 0.89 | 0.845 | – | 0.901 | 0.813
HCC-366 | 0.214 | 0.241 | 0.182 | 0.143 | 0.0782 | 0.307 | 0.287 | 0.137 | 0.0839 | 0.0678 | 0.47 | 0.416 | 0.32 | 0.227 | 0.196 | 0.239 | 0.32 | 0.28 | 0.226 | 0.174
BEN | 0.951 | 0.939 | – | 0.763 | 0.888 | 0.455 | 0.479 | 0.455 | 0.475 | 0.468 | 0.304 | 0.296 | 0.228 | 0.269 | 0.319 | 0.547 | 0.541 | 0.571 | 0.636 | 0.574
NCI-H2347 | 0.96 | 0.552 | 0.346 | 0.38 | 0.36 | 0.372 | 0.363 | 0.324 | 0.316 | 0.291 | 0.234 | 0.16 | 0.162 | 0.172 | 0.149 | 0.585 | 0.659 | 0.582 | 0.493 | 0.517
LCLC-103H | 0.974 | 0.875 | 0.665 | 0.81 | 0.624 | 0.484 | 0.44 | 0.483 | 0.468 | 0.507 | 0.498 | 0.512 | 0.429 | 0.402 | 0.446 | 0.819 | 0.755 | 0.749 | 0.853 | 0.766
NCI-H650 | 1.31 | 1.42 | 1.38 | 1.35 | 0.71 | 0.421 | 0.469 | 0.487 | 0.535 | 0.374 | 0.573 | 0.615 | 0.541 | 0.445 | 0.356 | 0.439 | 0.369 | – | 0.383 | 0.328
NCI-H1975 | 0.547 | 0.415 | 0.301 | 0.223 | 0.268 | 0.543 | 0.349 | 0.506 | 0.19 | 0.129 | 0.28 | 0.218 | 0.15 | 0.172 | 0.123 | 0.775 | 0.745 | 0.708 | 0.725 | 0.668
NCI-H2126 | 0.706 | 0.608 | 0.447 | 0.527 | 0.45 | 0.331 | 0.346 | 0.33 | 0.304 | 0.349 | 0.452 | 0.44 | 0.395 | 0.412 | 0.445 | 0.876 | 0.719 | 0.744 | 0.748 | 0.802
NCI-H2087 | 0.705 | 0.442 | 0.371 | 0.28 | 0.266 | 0.162 | 0.137 | 0.127 | 0.111 | 0.0967 | 0.366 | 0.236 | 0.117 | 0.127 | 0.156 | 0.73 | 0.603 | 0.551 | 0.753 | 0.838

— the supplement of paper PMC10307832
